Organism: Rattus norvegicus
Experiment: DrugMatrix - Regimen: Daily Repeat
Format: toxicity, organism-based, Sprague-Dawley
Design: regimen Daily Repeat, gender Male, age 6-8 weeks
Settings: in vivo, po, route oral GAVAGE, vehicle 100 % WATER; for ABSOLUTE BASOPHIL / ABSOLUTE EOSINOPHIL / ABSOLUTE LYMPHOCYTE / ABSOLUTE MONOCYTE / ABSOLUTE SEGMENTED NEUTROPHIL / BASOPHIL / EOSINOPHIL / ERYTHROCYTE COUNT / HEMATOCRIT / HEMOGLOBIN / LEUKOCYTE COUNT / LYMPHOCYTE / MEAN CORPUSCULAR HEMOGLOBIN / MEAN CORPUSCULAR HEMOGLOBIN CONCENTRATION / MEAN CORPUSCULAR VOLUME / MONOCYTE / NEUTROPHIL / NUCLEATED RED BLOOD CELLS / PLATELET COUNT: tissue Blood; for ALANINE AMINOTRANSFERASE / ALBUMIN / ALKALINE PHOSPHATASE / ASPARTATE AMINOTRANSFERASE / BLOOD UREA NITROGEN / CARBON DIOXIDE / CHLORIDE / CHOLESTEROL / CREATINE PHOSPHOKINASE / CREATININE / GLUCOSE / LACTATE DEHYDROGENASE / LIPASE / PHOSPHORUS / POTASSIUM / SODIUM / TOTAL BILIRUBIN / TOTAL PROTEIN / URIC ACID: tissue Plasma
[1] = 0 mg/kg, 72 h, dose level Control, time 3 day
[2] = 0 mg/kg, 120 h, dose level Control, time 5 day
[3] = 100 mg/kg, 72 h, dose level Low, time 3 day
[4] = 100 mg/kg, 120 h, dose level Low, time 5 day

C[C@](N)(Cc1ccc(O)c(O)c1)C(=O)O [METHYLDOPA]
ABSOLUTE BASOPHIL [1]: 0 CELLS/uL | ABSOLUTE EOSINOPHIL [1]: 46 CELLS/uL | ABSOLUTE LYMPHOCYTE [1]: 10225.67 CELLS/uL | ABSOLUTE MONOCYTE [1]: 319.33 CELLS/uL | ABSOLUTE SEGMENTED NEUTROPHIL [1]: 1242.33 CELLS/uL | BASOPHIL [1]: 0% | EOSINOPHIL [1]: 0.33% | ERYTHROCYTE COUNT [1]: 5.17 x10E6/uL | HEMATOCRIT [1]: 33.43% | HEMOGLOBIN [1]: 12.55 G/DL | LEUKOCYTE COUNT [1]: 11.83 x10E3/uL | LYMPHOCYTE [1]: 86.5% | MEAN CORPUSCULAR HEMOGLOBIN [1]: 24.35 pg | MEAN CORPUSCULAR HEMOGLOBIN CONCENTRATION [1]: 37.57 G/DL | MEAN CORPUSCULAR VOLUME [1]: 64.8 fL | MONOCYTE [1]: 2.67% | NEUTROPHIL [1]: 10.5% | NUCLEATED RED BLOOD CELLS [1]: 0.17 /100WBC | PLATELET COUNT [1]: 1026.17 x10E3/uL | ALANINE AMINOTRANSFERASE [1]: 52.67 u/L | ALBUMIN [1]: 4.17 G/DL | ALKALINE PHOSPHATASE [1]: 331 u/L | ASPARTATE AMINOTRANSFERASE [1]: 92.33 u/L | BLOOD UREA NITROGEN [1]: 15.33 mg/dL | CARBON DIOXIDE [1]: 26.17 mmol/L | CHLORIDE [1]: 103.17 MEQ/L | CHOLESTEROL [1]: 73.67 mg/dL | CREATINE PHOSPHOKINASE [1]: 472.83 u/L | CREATININE [1]: 0.29 mg/dL | GLUCOSE [1]: 178.5 mg/dL | LACTATE DEHYDROGENASE [1]: 244.83 u/L | LIPASE [1]: 10.67 u/L | PHOSPHORUS [1]: 12.45 mg/dL | POTASSIUM [1]: 6.35 MEQ/L | SODIUM [1]: 144.27 MEQ/L | TOTAL BILIRUBIN [1]: 0.13 mg/dL | TOTAL PROTEIN [1]: 5.77 G/DL | URIC ACID [1]: 2.08 mg/dL | ABSOLUTE BASOPHIL [2]: 0 CELLS/uL | ABSOLUTE EOSINOPHIL [2]: 23.5 CELLS/uL | ABSOLUTE LYMPHOCYTE [2]: 12797.33 CELLS/uL | ABSOLUTE MONOCYTE [2]: 465.5 CELLS/uL | ABSOLUTE SEGMENTED NEUTROPHIL [2]: 1313.67 CELLS/uL | BASOPHIL [2]: 0% | EOSINOPHIL [2]: 0.17% | ERYTHROCYTE COUNT [2]: 5.76 x10E6/uL | HEMATOCRIT [2]: 36.72% | HEMOGLOBIN [2]: 13.72 G/DL | LEUKOCYTE COUNT [2]: 14.6 x10E3/uL | LYMPHOCYTE [2]: 87.5% | MEAN CORPUSCULAR HEMOGLOBIN [2]: 23.8 pg | MEAN CORPUSCULAR HEMOGLOBIN CONCENTRATION [2]: 37.35 G/DL | MEAN CORPUSCULAR VOLUME [2]: 63.72 fL | MONOCYTE [2]: 3.17% | NEUTROPHIL [2]: 9.17% | NUCLEATED RED BLOOD CELLS [2]: 0.33 /100WBC | PLATELET COUNT [2]: 1270.67 x10E3/uL | ALANINE AMINOTRANSFERASE [2]: 50.5 u/L | ALBUMIN [2]: 4.32 G/DL | ALKALINE PHOSPHATASE [2]: 339.67 u/L | ASPARTATE AMINOTRANSFERASE [2]: 88 u/L | BLOOD UREA NITROGEN [2]: 17 mg/dL | CARBON DIOXIDE [2]: 25 mmol/L | CHLORIDE [2]: 103.83 MEQ/L | CHOLESTEROL [2]: 71.33 mg/dL | CREATINE PHOSPHOKINASE [2]: 281.83 u/L | CREATININE [2]: 0.26 mg/dL | GLUCOSE [2]: 161.67 mg/dL | LACTATE DEHYDROGENASE [2]: 191.17 u/L | LIPASE [2]: 10.17 u/L | PHOSPHORUS [2]: 11.72 mg/dL | POTASSIUM [2]: 6.76 MEQ/L | SODIUM [2]: 145.17 MEQ/L | TOTAL BILIRUBIN [2]: 0.2 mg/dL | TOTAL PROTEIN [2]: 6.15 G/DL | URIC ACID [2]: 2 mg/dL | ABSOLUTE BASOPHIL [3]: 0 CELLS/uL | ABSOLUTE EOSINOPHIL [3]: 0 CELLS/uL | ABSOLUTE LYMPHOCYTE [3]: 10758.67 CELLS/uL | ABSOLUTE MONOCYTE [3]: 142 CELLS/uL | ABSOLUTE SEGMENTED NEUTROPHIL [3]: 1766 CELLS/uL | BASOPHIL [3]: 0% | EOSINOPHIL [3]: 0% | ERYTHROCYTE COUNT [3]: 5.69 x10E6/uL | HEMATOCRIT [3]: 36.1% | HEMOGLOBIN [3]: 13.63 G/DL | LEUKOCYTE COUNT [3]: 12.67 x10E3/uL | LYMPHOCYTE [3]: 85.33% | MEAN CORPUSCULAR HEMOGLOBIN [3]: 24.03 pg | MEAN CORPUSCULAR HEMOGLOBIN CONCENTRATION [3]: 37.8 G/DL | MEAN CORPUSCULAR VOLUME [3]: 63.63 fL | MONOCYTE [3]: 1% | NEUTROPHIL [3]: 13.67% | NUCLEATED RED BLOOD CELLS [3]: 0 /100WBC | PLATELET COUNT [3]: 1351.33 x10E3/uL | ALANINE AMINOTRANSFERASE [3]: 54 u/L | ALBUMIN [3]: 4.2 G/DL | ALKALINE PHOSPHATASE [3]: 332.33 u/L | ASPARTATE AMINOTRANSFERASE [3]: 92.67 u/L | BLOOD UREA NITROGEN [3]: 19.33 mg/dL | CARBON DIOXIDE [3]: 25.67 mmol/L | CHLORIDE [3]: 102.67 MEQ/L | CHOLESTEROL [3]: 84 mg/dL | CREATINE PHOSPHOKINASE [3]: 281.67 u/L | CREATININE [3]: 0.24 mg/dL | GLUCOSE [3]: 161.33 mg/dL | LACTATE DEHYDROGENASE [3]: 210.33 u/L | LIPASE [3]: 13 u/L | PHOSPHORUS [3]: 12.67 mg/dL | POTASSIUM [3]: 7.2 MEQ/L | SODIUM [3]: 145.7 MEQ/L | TOTAL BILIRUBIN [3]: 0.23 mg/dL | TOTAL PROTEIN [3]: 6.07 G/DL | URIC ACID [3]: 2.93 mg/dL | ABSOLUTE BASOPHIL [4]: 0 CELLS/uL | ABSOLUTE EOSINOPHIL [4]: 0 CELLS/uL | ABSOLUTE LYMPHOCYTE [4]: 9543.67 CELLS/uL | ABSOLUTE MONOCYTE [4]: 215.33 CELLS/uL | ABSOLUTE SEGMENTED NEUTROPHIL [4]: 1341 CELLS/uL | BASOPHIL [4]: 0% | EOSINOPHIL [4]: 0% | ERYTHROCYTE COUNT [4]: 5.03 x10E6/uL | HEMATOCRIT [4]: 32.97% | HEMOGLOBIN [4]: 12.67 G/DL | LEUKOCYTE COUNT [4]: 11.1 x10E3/uL | LYMPHOCYTE [4]: 86% | MEAN CORPUSCULAR HEMOGLOBIN [4]: 25.17 pg | MEAN CORPUSCULAR HEMOGLOBIN CONCENTRATION [4]: 38.47 G/DL | MEAN CORPUSCULAR VOLUME [4]: 65.47 fL | MONOCYTE [4]: 1.67% | NEUTROPHIL [4]: 12.33% | NUCLEATED RED BLOOD CELLS [4]: 0 /100WBC | PLATELET COUNT [4]: 979.33 x10E3/uL | ALANINE AMINOTRANSFERASE [4]: 56.67 u/L | ALBUMIN [4]: 4.1 G/DL | ALKALINE PHOSPHATASE [4]: 363.67 u/L | ASPARTATE AMINOTRANSFERASE [4]: 90 u/L | BLOOD UREA NITROGEN [4]: 17 mg/dL | CARBON DIOXIDE [4]: 24.33 mmol/L | CHLORIDE [4]: 103.33 MEQ/L | CHOLESTEROL [4]: 67 mg/dL | CREATINE PHOSPHOKINASE [4]: 265.33 u/L | CREATININE [4]: 0.56 mg/dL | GLUCOSE [4]: 159 mg/dL | LACTATE DEHYDROGENASE [4]: 154.33 u/L | LIPASE [4]: 13.33 u/L | PHOSPHORUS [4]: 11.83 mg/dL | POTASSIUM [4]: 6.26 MEQ/L | SODIUM [4]: 145.33 MEQ/L | TOTAL BILIRUBIN [4]: 0.17 mg/dL | TOTAL PROTEIN [4]: 5.8 G/DL | URIC ACID [4]: 1.6 mg/dL
